Assay results taken from patent publication US20260166159A1, “KRAS G12D DEGRADATION AGENT, AND PREPARATION METHOD AND USE THEREFOR” (LEADINGTAC PHARMACEUTICAL (SHAOXING) CO., LTD., priority 2022, published 2026).

Legend:
[1] = tested on: KRAS G12D mutant human gastric cancer cell AGS; assay: 3D cell proliferation inhibition assay, AGS; assay type: cell-based; conditions: 168 h, 7 days, CTG, numeric values
Excerpt: The inhibitory effects of the compounds on 3D cell proliferation were investigated on KRAS G12D mutant human lung cancer cell A427, KRAS G12D mutant human gastric cancer cell AGS, KRAS G12D mutant human metastatic pancreatic cancer cell AsPc-1, KRAS G12D mutant human pancreatic cancer cell Panc 04.03, KRAS G12D mutant human pancreatic cancer cell HPAC, KRAS G12V mutant human lung squamous cell carcinoma cell SW900, and KRAS WT human gastric cancer cell MKN1. The specific procedures were as follows:
10 μL of each compound solution diluted in a gradient was added to corresponding wells of a 96-well low-adsorption microplate (PerkinElmer), so that the final concentrations of the test compounds in the reaction system were in a range of 10000-0.026 nM. The final concentration of DMSO was 0.2%. Then 90 µL of cells were correspondingly seeded into each well to achieve a cell density of 5×10^2 cells/well (the cell density of SW900 was 5×10^1 cells/well, and the cell density of MKN1 was 1×10^3 cells/well). In addition to test wells for the test compounds, both a DMSO control well and a medium control well were set, with the DMSO control well containing DMSO and cells and the medium well containing only a medium. After the sample loading, the 96-well low-adsorption microplate was incubated in an incubator at 37° C. with 5% carbon dioxide for 7 days. After 7 days, the microplate was taken out, and 100 μL of CTG reagent (Promega) was added to each well. The plate was incubated at room temperature for 60 min and read on a microplate reader EnVision by the chemiluminescence program. The inhibition rates of the compounds at each concentration were calculated using the formula for the percentage inhibition of cell proliferation: inhibition rate %=(mean value of DMSO control group−single concentration reading value of compound)/(mean value of DMSO control group−mean value of medium control group)×100. Then non-linear curve fittings for logarithmic concentration-inhibition rate were performed by GraphPad Prism 8, and the IC50 values of the compounds were obtained (Table 5).

KRAS-G12D = target: T1, KRAS-G12D (Homo sapiens, UniProt P01116, G12D); assay: KRAS-G12D degradation assay (Western Blot), A-427 cells; assay type: cell-based; conditions: A427 cells, 24 h; for Dmax: A-427
T1 construct: endogenous in cells; host or cells: A-427 (ATCC), AGS, AsPc-1, Panc 04.03
Experimental: The degradation effects of the compounds on KRAS-G12D were investigated on KRAS G12D mutant human lung cancer cell A-427 (ATCC), KRAS G12D mutant human gastric cancer cell AGS, KRAS G12D mutant human metastatic pancreatic cancer cell AsPc-1, and KRAS G12D mutant human pancreatic adenocarcinoma cell Panc 04.03. The specific procedures were as follows: 0.95 mL of cells were seeded into each well of a 24-well cell culture plate to achieve a cell density of 5×10^5 cells/well; and the cell plate was incubated in an incubator at 37° C. with 5% CO2 overnight. Then 50 μL of the compound solution after dilution was added to each of the wells with the corresponding cells, so that the final concentration of the compound was in a range of 0.03-3000 nM. The final concentration of DMSO was 0.25%. After the compounds were added, the cell plate was incubated in the incubator at 37° C. with 5% CO2 for 24 h. The culture medium in the 24-well cell culture plate was removed, and the plate was washed twice with 1×PBS (KeyGEN). 120 μL of RIPA (strong) lysis buffer (Beyotime) supplemented with 1 mM phenylmethylsulfonyl fluoride, a protease inhibitor mixture (Beyotime), and a protease phosphatase inhibitor mixture (Beyotime) was added to lyse adherent A-427 cells at the bottom of the cell culture plate. After the plate was left to stand on ice for 30 min, the protein lysate in each well was transferred to a 1.5 mL centrifuge tube and centrifuged at 15000 g for 20 min at 4° C. The cell lysate supernatants after centrifugation were cryopreserved in a refrigerator at −80° C. for later use.
After the samples of the cell lysate supernatants that had been prepared were thawed from the refrigerator at −80° C., the total protein concentrations of the cell lysates were determined using a BCA protein quantification kit (Tiangen). The total protein concentrations of the samples were then adjusted to 0.5 μg/μL with PBS and 5×SDS-PAGE protein loading buffer (Beyotime), and the samples were incubated in a water bath at 100° C. for 15 min. The samples were then incubated in an ice bath for 5 min and centrifuged at 14000 g for 1 min at 4° C., and the supernatants were mixed well as loading samples for the Western Blot assay. The samples were loaded into wells of a 10% precast gel (KeyGEN) with a loading volume of 10 μL (total protein: 5 μg), a sufficient Tris-MOPS-SDS running buffer (Adamas) was added, and then electrophoresis was performed at a constant voltage of 120 V for 55 min. After the electrophoresis, the proteins on the gel were transferred to PVDF membranes at a constant current of 250 mA for 55 min. After the membrane transfer, the PVDF membranes were incubated in 1× Quick Block blocking buffer (Beyotime) at room temperature for 30 min. After the blocking, the PVDF membranes were separately incubated at 4° C. overnight with the KRAS antibody (Abcam) diluted in a ratio of 1:1000 and the […] antibody (Abcam) diluted in a ratio of 1:2000 in 5% BSA as the diluent, and then washed with 1×TBST buffer (2.4 g of Tris, 8.8 g of NaCl, 1.5 mL of Tween 20, with pH adjusted to 7.4, with the volume brought to 1 L) 3 times for 10 min/time. The membranes were incubated with a secondary antibody (Abcam) diluted in 5% BSA at room temperature for 2 h, and then washed with 1×TBST buffer 3 times for 10 min/time. Finally, the membranes were incubated with Clarity Western ECL Substrate (BIO-RAD) for 5 min for luminescence and color development, and a ChemiScope 6200 Touch chemiluminescence imaging system (Clinx) was used for color development and protein mapping. Gray value analysis of the protein maps was performed using the chemiluminescence analysis software (Clinx). The gray correction value for each sample was calculated using the formula: gray correction value=(gray value of target protein/gray value of corresponding internal reference)×10^3. Then degradation rates were calculated by comparison with the gray correction value of the control group. […]

T1 sequence (P01116 1-188 isoform P01116-2 G12D): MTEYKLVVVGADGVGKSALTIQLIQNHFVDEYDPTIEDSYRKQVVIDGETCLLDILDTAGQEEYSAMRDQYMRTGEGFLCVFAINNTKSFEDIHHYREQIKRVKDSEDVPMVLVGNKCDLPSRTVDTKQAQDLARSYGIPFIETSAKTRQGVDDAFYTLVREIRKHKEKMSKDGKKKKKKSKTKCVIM

Row | SMILES | IC50 [1] | DC50 (KRAS-G12D; numeric values) | Dmax (KRAS-G12D; numeric values) | DC50 (KRAS-G12D; class symbols) | also measured
1 | C#Cc1c(F)ccc2cc(O)cc(-c3ncc4c(N5CC6CCC(C5)N6)nc(OCC5CCN(CCCC6CCC7(CC6)CCN(C(=O)c6ccc(Cl)c(N8CCC(=O)NC8=O)c6)CC7)CC5)nc4c3F)c12 [Example 68, 1-(5-(9-(3-(4-(((4-(3,8-diazabicyclo[3.2.1]octan-3-yl)-7-(8-ethynyl-7-fluoro-3-hydroxynaphthalen-1-yl)-8-fluoropyrido[4,3-d]pyrimidin-2-yl)oxy)methyl)piperidin-1-yl)propyl)-3-azaspiro[5.5]undecane-3-carbonyl)-2-chlorophenyl)dihydropyrimidine-2,4(1H,3H)-dione] | 24.8 nM | – | – | – | –
2 | CCc1cccc2cc(O)cc(-c3ccc4c(N5CC6CCC(C5)N6)nc(OCC5(CN6CCN(CC7CCC8(CC7)CCN(C(=O)c7ccc(OC)c(N9CCC(=O)NC9=O)c7)CC8)CC6)CC5)nc4c3F)c12 [Example 83, 1-(5-(9-((4-((1-(((4-(3,8-diazabicyclo[3.2.1]octan-3-yl)-7-(8-ethyl-3-hydroxynaphthalen-1-yl)-8-fluoroquinazolin-2-yl)oxy)methyl)cyclopropyl)methyl)piperazin-1-yl)methyl)-3-azaspiro[5.5]undecane-3-carbonyl)-2-methoxyphenyl)dihydropyrimidine-2,4(1H,3H)-dione] | – | 33.9 nM | 87.2% | – | –
3 | C#Cc1c(F)ccc2cc(O)cc(-c3ncc4c(N5CC6CCC(C5)N6)nc(OCC5(CN6CC7CC(C6)N7CC6CCC7(CC6)CCN(C(=O)c6ccc(Cl)c(N8CCC(=O)NC8=O)c6)CC7)CC5)nc4c3F)c12 [Example 87, 1-(5-(9-((3-((1-(((4-(3,8-diazabicyclo[3.2.1]octan-3-yl)-7-(8-ethynyl-7-fluoro-3-hydroxynaphthalen-1-yl)-8-fluoropyrido[4,3-d]pyrimidin-2-yl)oxy)methyl)cyclopropyl)methyl)-3,6-diazabicyclo[3.1.1]heptan-6-yl)methyl)-3-azaspiro[5.5]undecane-3-carbonyl)-2-chlorophenyl)dihydropyrimidine-2,4(1H,3H)-dione] | 606 nM | – | – | – | –
4 | C#Cc1c(F)ccc2cc(O)cc(-c3ncc4c(N5CC6CCC(C5)N6)nc(NCC5(CN6CCN(CC7CCC8(CC7)CCN(C(=O)c7ccc(Cl)c(N9CCC(=O)NC9=O)c7)CC8)CC6)CC5)nc4c3F)c12 [Example 46, 1-(5-(9-((4-((1-(((4-(3,8-diazabicyclo[3.2.1]octan-3-yl)-7-(8-ethynyl-7-fluoro-3-hydroxynaphthalen-1-yl)-8-fluoropyrido[4,3-d]pyrimidin-2-yl)amino)methyl)cyclopropyl)methyl)piperazin-1-yl)methyl)-3-azaspiro[5.5]undecane-3-carbonyl)-2-chlorophenyl)dihydropyrimidine-2,4(1H,3H)-dione] | – | – | – | ≤ 50 nM | Dmax (KRAS-G12D; class symbols): 80 to 100%
5 | C#Cc1c(F)ccc2cc(O)cc(-c3ncc4c(N5C[C@@H]6C[C@H]5CN6)nc(OCC5(CN6CCN(CC7CCC8(CC7)CCN(C(=O)c7ccc(C)c(N9CCC(=O)NC9=O)c7)CC8)CC6)CC5)nc4c3F)c12 [Example 86, 1-(5-(9-((4-((1-(((4-((1S,4S)-2,5-diazabicyclo[2.2.1]heptan-2-yl)-7-(8-ethynyl-7-fluoro-3-hydroxynaphthalen-1-yl)-8-fluoropyrido[4,3-d]pyrimidin-2-yl)oxy)methyl)cyclopropyl)methyl)piperazin-1-yl)methyl)-3-azaspiro[5.5]undecane-3-carbonyl)-2-methylphenyl)dihydropyrimidine-2,4(1H,3H)-dione] | 97.5 nM | – | – | – | –
6 | C#Cc1c(F)ccc2cc(O)cc(-c3ccc4c(N5CC6CCC(C5)N6)nc(OCC5(CN6CCN(CC7CCC8(CC7)CCN(C(=O)c7ccc(Cl)c(N9CCC(=O)NC9=O)c7)CC8)CC6)CC5)nc4c3F)c12 [Example 72, 1-(5-(9-((4-((1-(((4-(3,8-diazabicyclo[3.2.1]octan-3-yl)-7-(8-ethynyl-7-fluoro-3-hydroxynaphthalen-1-yl)-8-fluoroquinazolin-2-yl)oxy)methyl)cyclopropyl)methyl)piperazin-1-yl)methyl)-3-azaspiro[5.5]undecane-3-carbonyl)-2-chlorophenyl)dihydropyrimidine-2,4(1H,3H)-dione] | 8.64 nM | 101 nM | 82.6% | – | –
7 | C#Cc1c(F)ccc2cc(O)cc(-c3ncc4c(N5CC6CCC(C5)N6)nc(OCC5(CN6CC(CCN7CCC8(CC7)CCN(C(=O)c7ccc(OC)c(N9CCC(=O)NC9=O)c7)CC8)C6)CC5)nc4c3F)c12 [Example 41, 1-(5-(9-(2-(1-((1-(((4-(3,8-diazabicyclo[3.2.1]octan-3-yl)-7-(8-ethynyl-7-fluoro-3-hydroxynaphthalen-1-yl)-8-fluoropyrido[4,3-d]pyrimidin-2-yl)oxy)methyl)cyclopropyl)methyl)azetidin-3-yl)ethyl)-3,9-diazaspiro[5.5]undecane-3-carbonyl)-2-methoxyphenyl)dihydropyrimidine-2,4(1H,3H)-dione] | – | – | – | 1000 to 10000 nM | –
8 | C#Cc1c(F)ccc2cc(O)cc(-c3ncc4c(N5CC6CCC(C5)N6)nc(OCC5(CN6CCN(CCC7CC8(CCN(C(=O)c9ccc(OC)c(N%10CCC(=O)NC%10=O)c9)CC8)C7)CC6)CC5)nc4c3F)c12 [Example 43, 1-(5-(2-(2-(4-((1-(((4-(3,8-diazabicyclo[3.2.1]octan-3-yl)-7-(8-ethynyl-7-fluoro-3-hydroxynaphthalen-1-yl)-8-fluoropyrido[4,3-d]pyrimidin-2-yl)oxy)methyl)cyclopropyl)methyl)piperazin-1-yl)ethyl)-7-azaspiro[3.5]nonane-7-carbonyl)-2-methoxyphenyl)dihydropyrimidine-2,4(1H,3H)-dione] | – | – | – | ≤ 50 nM | Dmax (KRAS-G12D; class symbols): 50 to 80%
9 | CCc1cccc2cc(O)cc(-c3ncc4c(N5CCC6CCC(C5)N6)nc(OCC5(CN6CCN(CC7CCC8(CC7)CCN(C(=O)c7ccc(OC)c(N9CCC(=O)NC9=O)c7)CC8)CC6)CC5)nc4c3F)c12 (stereo not drawn) [Example 88, 1-(5-(9-((4-((1-(((4-(3,9-diazabicyclo[4.2.1]nonan-3-yl)-7-(8-ethyl-3-hydroxynaphthalen-1-yl)-8-fluoropyrido[4,3-d]pyrimidin-2-yl)oxy)methyl)cyclopropyl)methyl)piperazin-1-yl)methyl)-3-azaspiro[5.5]undecane-3-carbonyl)-2-methoxyphenyl)dihydropyrimidine-2,4(1H,3H)-dione] | – | 0.65 nM | 89.5% | – | –
